The text below walks through data of patent publication US20230047816A1 (priority 2018, published 2023).

The target in one experiment is Recombinant full length human PFKFB3 (Homo sapiens, UniProt Q16875). As to the kind of experiment: PFKFB3 kinase activity assay (ADP production, ADP-Glo).
Sequence of Recombinant full length human PFKFB3 (Q16875 whole entry): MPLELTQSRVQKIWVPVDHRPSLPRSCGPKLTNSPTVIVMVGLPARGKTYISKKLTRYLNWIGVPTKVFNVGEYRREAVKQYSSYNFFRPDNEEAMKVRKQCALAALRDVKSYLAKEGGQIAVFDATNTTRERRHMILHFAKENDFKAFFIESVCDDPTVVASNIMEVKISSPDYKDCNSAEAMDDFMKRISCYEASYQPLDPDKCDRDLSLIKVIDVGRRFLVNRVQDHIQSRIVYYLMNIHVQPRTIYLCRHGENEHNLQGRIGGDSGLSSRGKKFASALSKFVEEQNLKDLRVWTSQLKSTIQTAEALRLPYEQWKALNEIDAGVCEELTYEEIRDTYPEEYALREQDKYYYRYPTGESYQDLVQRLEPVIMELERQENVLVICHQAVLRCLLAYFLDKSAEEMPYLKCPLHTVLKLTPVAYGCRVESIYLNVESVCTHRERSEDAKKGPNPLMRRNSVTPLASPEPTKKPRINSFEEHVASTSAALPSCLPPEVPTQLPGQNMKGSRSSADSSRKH
Conditions: not given
Take `CC(CN(C)C)OC(=O)c1ccc(-c2ccc(Cl)cc2Cl)cc1NC(=O)c1cc(C(=O)O)c(O)cc1C(=O)O` (centres unmarked) [Example 73, 2-{[2′,4′-dichloro-4-({[1-(dimethylamino)propan-2-yl]oxy}carbonyl)-[1,1′-biphenyl]-3-yl]carbamoyl}-5-hydroxybenzene-1,4-dicarboxylic acid]: the half-maximal inhibitory concentration (IC50) (as a rule, the midpoint of a concentration-inhibition curve) is less than 0.5 µM. The same measure, in the same setting: for `N#Cc1cc(-c2ccccc2)ccc1N1C(=O)c2ccc(C(=O)O)cc2C1=O` [compound 145, 2-(3-cyanobiphenyl-4-yl)-1,3-dioxoisoindoline-5-carboxylic acid] the value was less than 20 µM; for `O=C1c2ccc(-c3c[nH]nn3)cc2C(=O)N1c1cc(-c2ccc(F)cc2)c(-c2ccccc2)cn1` [compound 146, 2-(4-(4-fluorophenyl)-5-phenylpyridin-2-yl)-5-(1H-1,2,3-triazol-4-yl)isoindoline-1,3-dione], less than 20 µM; for `Cn1cc(-c2ccccc2)cc(N2C(=O)c3ccc(-c4c[nH]nn4)cc3C2=O)c1=O` [compound 147, 2-(1-methyl-2-oxo-5-phenyl-1,2-dihydropyridin-3-yl)-5-(1H-1,2,3-triazol-4-yl)isoindoline-1,3-dione], less than 20 µM.

In the case of `NS(=O)(=O)c1ccc(-c2ccccc2)cc1N1C(=O)c2ccc(-c3c[nH]nn3)cc2C1=O` [compound 148, 3-(1,3-dioxo-5-(1H-1,2,3-triazol-4-yl)isoindolin-2-yl)biphenyl-4-sulfonamide], the IC50 was less than 20 µM. `COc1ccc(-c2c(C)sc(N3C(=O)c4ccc(C(=O)NCC(=O)O)cc4C3=O)c2C#N)cc1` [compound 149, 2-(2-(3-cyano-4-(4-methoxyphenyl)-5-methylthiophen-2-yl)-1,3-dioxoisoindoline-5-carboxamido)acetic acid]: the IC50 was less than 20 µM. Still for that read-out and setting: for `COC(=O)c1cc(-c2ccccc2)ccc1N1C(=O)c2ccc(C(=O)NS(=O)(=O)c3ccccc3)cc2C1=O` [compound 152, methyl 4-(1,3-dioxo-5-(phenylsulfonylcarbamoyl)isoindolin-2-yl)biphenyl-3-carboxylate] the value was less than 20 µM. On the same count and under the same terms, for `COc1ccc(-c2nnn[nH]2)c(N2C(=O)c3ccc(-c4c[nH]nn4)cc3C2=O)c1` [compound 154, 2-(2-(1H-tetrazol-5-yl)-5-methoxyphenyl)-5-(1H-1,2,3-triazol-4-yl)isoindoline-1,3-dione] the value was 5 to 20 µM.

Take `CN1CCN(CCOC(=O)c2ccc(-c3ccc(F)c(F)c3)cc2N2Cc3ccc(CO)cc3C2=O)CC1` [compound 155, 2-(4-methylpiperazin-1-yl)ethyl 3′,4′-difluoro-3-(6-(hydroxymethyl)-1-oxoisoindolin-2-yl)biphenyl-4-carboxylate]: the IC50 is less than 20 µM.

Consider `CC(C)OC(=O)c1ccc(-c2ccc(F)c(F)c2)cc1N1Cc2ccc(CO)cc2C1=O` [compound 156, isopropyl 3′,4′-difluoro-3-(6-(hydroxymethyl)-1-oxoisoindolin-2-yl)biphenyl-4-carboxylate], for which the 50% inhibitory concentration (IC50) was less than 20 µM. Still for that read-out and setting: for `COC(=O)c1ccc(-c2ccc(F)c(F)c2)cc1N1Cc2ccc(CO)cc2C1=O` [compound 157, methyl 3′,4′-difluoro-3-(6-(hydroxymethyl)-1-oxoisoindolin-2-yl)biphenyl-4-carboxylate] the value was less than 20 µM. In the case of `O=C(O)c1ccc(-c2ccc(F)c(F)c2)cc1N1Cc2ccc(CO)cc2C1=O` [compound 158, 3′,4′-difluoro-3-(6-(hydroxymethyl)-1-oxoisoindolin-2-yl)biphenyl-4-carboxylic acid], the IC50 was 5 to 20 µM. Still for that read-out and setting: to `CCOC(=O)c1ccc(-c2ccc(F)c(F)c2)cc1N1Cc2ccc(CO)cc2C1=O` [compound 159, ethyl 3′,4′-difluoro-3-(6-(hydroxymethyl)-1-oxoisoindolin-2-yl)biphenyl-4-carboxylate] belongs less than 20 µM. On the same count and under the same terms, for `NC(=O)c1ccc2c(c1)C(=O)N(c1cc(-c3ccc(F)c(F)c3)ccc1C(=O)O)C2` [compound 160, 3-(6-carbamoyl-1-oxoisoindolin-2-yl)-3′,4′-difluorobiphenyl-4-carboxylic acid] the value was 5 to 20 µM; for `O=C(O)c1ccc(-c2ccc(F)c(F)c2)cc1N1Cc2ccc(-c3nn[nH]c3CO)cc2C1=O` [compound 161, 3′,4′-difluoro-3-(6-(5-(hydroxymethyl)-1H-1,2,3-triazol-4-yl)-1-oxoisoindolin-2-yl)biphenyl-4-carboxylic acid], 5 to 20 µM. Still for that read-out and setting: for `O=C(O)c1ccc(-c2ccc(F)c(F)c2)cc1N1Cc2ccc(-c3nn[nH]c3C(=O)c3ccccc3)cc2C1=O` [compound 162, 3-(6-(5-benzoyl-1H-1,2,3-triazol-4-yl)-1-oxoisoindolin-2-yl)-3′,4′-difluorobiphenyl-4-carboxylic acid] the value was 0.5 to 2 µM; for `O=C(O)c1ccc(-c2ccc(F)c(F)c2)cc1N1Cc2ccc(-c3nn[nH]c3-c3ccccc3)cc2C1=O` [compound 163, 3′,4′-difluoro-3-(1-oxo-6-(5-phenyl-1H-1,2,3-triazol-4-yl)isoindolin-2-yl)biphenyl-4-carboxylic acid], 0.5 to 2 µM; for `NC(=O)c1[nH]nnc1-c1ccc2c(c1)C(=O)N(c1cc(-c3ccc(F)c(F)c3)ccc1C(=O)O)C2` [compound 164, 3-(6-(5-carbamoyl-1H-1,2,3-triazol-4-yl)-1-oxoisoindolin-2-yl)-3′,4′-difluorobiphenyl-4-carboxylic acid], 2 to 5 µM. Consider `CN(C)C(=O)c1[nH]nnc1-c1ccc2c(c1)C(=O)N(c1cc(-c3ccc(F)c(F)c3)ccc1C(=O)O)C2` [compound 165, 3-(6-(5-(dimethylcarbamoyl)-1H-1,2,3-triazol-4-yl)-1-oxoisoindolin-2-yl)-3′,4′-difluorobiphenyl-4-carboxylic acid], for which the 50% inhibitory concentration (IC50) was 2 to 5 µM. Take `CCOC(=O)c1ccc(-c2ccc(F)c(F)c2)cc1N1C(=O)c2ccc(-c3cnn[nH]3)cc2C1=O` [compound 167, ethyl 3-[1,3-dioxo-5-(1H-1,2,3-triazol-5-yl)-1,3-dihydro-2H-isoindol-2-yl]-3′,4′-difluoro[1,1′-biphenyl]-4-carboxylate]: the concentration for half-maximal inhibition (IC50) was less than 20 µM.

Turning to `CC(=O)OCCOC(=O)c1ccc(-c2ccc(F)c(F)c2)cc1N1C(=O)c2ccc(-c3cnn[nH]3)cc2C1=O` [compound 168, 2-(acetyloxy)ethyl 3-[1,3-dioxo-5-(1H-1,2,3-triazol-5-yl)-2,3-dihydro-1H-isoindol-2-yl]-3′,4′-difluoro[1,1′-biphenyl]-4-carboxylate], the half-inhibitory concentration (IC50) was less than 20 µM. In the case of `O=C(O)c1cc2c(cc1Br)C(=O)N(c1cc(-c3ccc(F)c(F)c3)ccc1C(=O)O)C2=O` [compound 169, 6-bromo-2-(4-carboxy-3′,4′-difluoro[1,1′-biphenyl]-3-yl)-1,3-dioxo-2,3-dihydro-1H-isoindole-5-carboxylic acid], the IC50 was less than 0.5 µM.

As to `COc1cc2c(cc1C(=O)O)C(=O)N(c1cc(-c3ccc(F)c(F)c3)ccc1C(=O)O)C2=O` [compound 170, 2-(4-carboxy-3′,4′-difluoro[1,1′-biphenyl]-3-yl)-6-methoxy-1,3-dioxo-2,3-dihydro-1H-isoindole-5-carboxylic acid], the concentration for half-maximal inhibition (IC50) is less than 0.5 µM.

A further experiment concerns neurons. Kind of experiment: Neuroprotection, protection factor, b-amyloid treatment. In kind it is cell-based. The conditions noted are these: Treatment beta-amyloid, 24 hours. As for the experimental part: For NMDAR activation, neurons at 8 days in vitro were incubated 100 μM NMDA (plus 10 μM glycine) for 10 minutes. Neurons were then washed and further incubated in culture medium with the PFKFB3 inhibitors for 24 hours. For b-amyloid treatment, neurons at 8 days in vitro were incubated with […] b-amyloid plus the PFKFB3 inhibitors for 24 hours. The Protection factor was estimated as [AMC(beta-A)−AMC(DMSO)]/[AMC(beta-A)−AMC(Test article)] or [AMC(beta-A)−AMC(DMSO)]/[AMC(NMDA)−AMC(Test article)], where:
AMC(DMSO)—% dead neuron in case of DMSO treatment
AMC(beta—A)—% dead neuron in case of b—amyloid treatment
AMC(Test article)—% dead neuron in case of PFKFB3 inhibitors treatment.
In turn, `O=C(O)c1ccc2c(c1)C(=O)N(c1cc(-c3ccc(Cl)cc3Cl)ccc1C(=O)O)C2=O` came in with a Protection factors of 1.75.

In turn, `O=C(O)c1cc2c(cc1O)C(=O)N(c1cc(-c3ccc(F)c(F)c3)ccc1C(=O)O)C2=O` returned a Protection factors of 2.15. For the compound `CN(C)CCOC(=O)c1ccc(-c2ccc(Cl)cc2Cl)cc1NC(=O)c1ccc(C(=O)N=S(C)(C)=O)cc1C(=O)O`, the Protection factors came to 1.43. On the same count and under the same terms, to `O=C(O)c1ccc(-c2ccc(F)c(F)c2)cc1N1C(=O)c2cc(Cl)c(-c3cn[nH]n3)cc2C1=O` belongs 1.15; to `O=C(O)c1ccc(-c2ccc(F)c(F)c2)cc1N1Cc2ccc(-c3cn[nH]n3)cc2C1=O`, 12.17.

Take `CCOC(=O)c1ccc(-c2ccc(F)c(F)c2)cc1N1Cc2ccc(-c3cn[nH]n3)cc2C1=O`: the Protection factors is 2.35.

Turning to `CC(C)OC(=O)c1ccc(-c2ccc(F)c(F)c2)cc1N1Cc2ccc(-c3cn[nH]n3)cc2C1=O`, the Protection factors was 1.43.

As to `CC1(C)CCC(c2ccc(C(=O)O)c(NC(=O)c3cc(C(=O)O)c(O)cc3C(=O)O)c2)CC1` [2-{[2-carboxy-5-(4,4-dimethylcyclohexyl)phenyl]carbamoyl}-5-hydroxybenzene-1,4-dicarboxylic acid], the Protection factors came out at 2.05. The same measure, in the same setting: for `O=C(O)c1cc(C(=O)O)c(C(=O)Nc2cc(-c3ccc(Cl)cc3Cl)ccc2C(=O)O)cc1O` [4-({4-carboxy-2′,4′-dichloro-[1,1′-biphenyl]-3-yl}carbamoyl)-6-hydroxybenzene-1,3-dicarboxylic acid] the value was 8.07; for `CC1(C)CCN(c2ccc(C(=O)O)c(NC(=O)c3cc(O)c(C(=O)O)cc3C(=O)O)c2)CC1` [4-{[2-carboxy-5-(4,4-dimethylpiperidin-1-yl)phenyl]carbamoyl}-6-hydroxybenzene-1,3-dicarboxylic acid], 4.33; for `CC(C)Cn1cc(C#N)c2cc(Oc3ccc(NC(=O)[C@@H]4CCCN4)cc3)ccc21` [(2S)-N-(4-{[3-cyano-1-(2-methylpropyl)-1H-indol-5-yl]oxy]phenyl)pyrrolidine-2-carboxamide], 1.97.

The compound `Cc1noc(C)c1Cn1cc(C#N)c2cc(Oc3ccc(NC(=O)[C@@H]4CCCN4)cc3)ccc21` [(2S)-N-[4-({3-cyano-1-[(3,5-dimethyl-1,2-oxazol-4-yl)methyl]-1H-indol-5-yl}oxy)phenyl]pyrrolidine-2-carboxamide] registered a Protection factors of 1.68.
